“Also recorded” adds a separate entry of the source.
Tests used:
Assay type in all cases: cell-based, human
UCP5 (SLC25A14) = assay: QRT-PCR of UCP5 (SLC25A14) mRNA in IMR-32 cells; settings: 150 ppb, 6 hours
Protocol: (§1) Human IMR-32 cells were seeded on gelatinized 6-well (6.5×10^5 cells/well) or 24-well (1.3×10^5 cells/well) plates. Cells were treated with control (0 ppb) or various compounds for 6 hours or 24 hours. Total RNA from these cells was isolated using Trizol (Invitrogen) according to the manufacturer's protocol, and then incubated with DNase I to remove any potential contaminated genomic DNA. Then RNA samples were subjected to real-time PCR analysis using the Applied-Bioscience's RT kit and predesigned Taqman probes (Invitrogen), as described previously (Lan et al EMBO J 2003). The mRNA levels of UCP1, UCP2, UCP3, SLC25A27 (UCP4), SLC25A14 (UCP5), PSEN1, Nicastrin, GSK3B, MAPK11-14, PPARG, APOE, RCAN1, RCAN1.1, G6PC, INSR, IGF1R and FOXO4 were measured. Three to six samples were analyzed in each treatment group. Data were normalized by Actin B (ACTB) or Glyceraldehyde Phosphate Dehydrogenase (GAPDH) mRNA levels in each sample and are presented as mean±SEM of 3-6 samples.

UCP3 = assay: QRT-PCR of UCP3 mRNA in IMR-32 cells; settings: 150 ppb, 6 hours
Protocol: as §1

PSEN1 = assay: QRT-PCR of PSEN1 mRNA in IMR-32 cells
Protocol: as §1
RNA samples were extracted, purified, and subjected to real-time PCR analysis using Applied-Bioscience's RT kit and Taqman probes (Invitrogen) as described previously in Example 4. Protein samples were also prepared from cell lysates and western blot analysis was performed as previously described in Example 4. Data are presented as mean±SEM of 3 protein samples and 4 RNA samples per group. The relative mRNA and protein expression levels of PSEN1 and NICASTRIN, were measured. All primary antibodies were purchased from Cell Signaling Inc., Beverly, Mass.

PGC-1α = assay: Western blot of PGC-1α protein in IMR-32 cells; settings: 150 ppb, 24 hours
Protocol: (§2) IMR-32 cells were seeded on 6-well plates and then treated with control and various compounds for 6 hours and 24 hours, as described above. After treatments, cells were rinsed with ice-cold PBS and lysed in ice-cold RIPA buffer containing complete proteinase and phosphatase inhibitors (Thermo-Fisher Scientific, Waltham, Mass.) on ice for 30 min Cell lysates were collected using a cell scraper and transfer pipette and then centrifuged at 12000×g for 30 min at 4° C. to remove the DNA pellet and obtain the protein extract. Protein levels in the supernatant of these cell lysates were determined using the Pierce Micro-BCA protein assay kit (Thermo Scientific-Piece Biotechnology, Rockford, Ill.) according to the manufacturer's protocol […]
(§3) Positive signals on the membrane blots were detected using Amersham's enhanced chemiluminescence (ECL) Western Blotting Prime Detection reagents (GE healthcare Lifescience, Pittsburgh, Pa.). Images of these luminescence signals on the membrane blots were captured using the LI-COR Odyssey Fc Image system (Lincoln, Nebr.). […] Protein band densities in the Western blots were determined using the Li—COR Image studio software or NIH ImageJ software, and then normalized by ACTB protein level in each sample. […]

p38 = assay: Western blot of total p38 protein in IMR-32 cells; settings: 150 ppb, 24 hours
Protocol: as §2, §3

NICASTRIN = assay: Western blot of NICASTRIN protein in IMR-32 cells; settings: 150 ppb, 24 hours
Protocol: as §2, §3

GSK3B [1] = assay: QRT-PCR of GSK3B mRNA in IMR-32 cells (normal, control KD, FOXO4 KD); settings: for GSK3B mRNA levels: IMR-32 cells
Protocol: IMR-32 cells were cultured on 12-well plates for 24 hours and then incubated with FOXO4 siRNA lentiviruses (SC-29650V, Santa Cruz) or control siRNA lentiviruses (sc-108080, Santa Cruz) in the presence of Polybrene (5 μg/ml, Santa Cruz) for 24 hours according to the manufacturer's protocol. These lentiviral siRNA-transfected cells were amplified in normal media for 3 days and then incubated with puromycin for 9-14 days to obtain the stable Control KD (stably transfected with the control siRNAs) and FOXO4KD (stably transfected with Foxo4 siRNAs) cells. These control and Foxo4 KD cells were subjected to cell survival, mitochondrial potential and RNA analysis.
as §1
Expression of genes such as Nicastrin and GSK3B (FIGS. 3A, 3C, 3G-3I, 4A, 4F-4H) which are associated with early-onset AD pathogenesis was attenuated by Compound C. […] Therefore, GSK3B and Nicastrin likely are two direct downstream target genes of FOXO4 in neuronal cells in humans.

GSK3B [2] = assay: Western blot of total GSK3B protein in IMR-32 cells; settings: 150 ppb, 24 hours
Protocol: as §2, §3

| SMILES | UCP5 (SLC25A14) mRNA expression (UCP5 (SLC25A14)) | UCP3 mRNA expression (UCP3) | PSEN1 mRNA expression, dose response (PSEN1; 75 ppb and 150 ppb, 24 hours) | PSEN1 mRNA expression (PSEN1; 150 ppb, 6 hours and 24 hours) | PGC-1α protein levels (normalized by ACTB) (PGC-1α) | Total p38 protein levels (p38) | NICASTRIN protein levels (NICASTRIN) | GSK3B mRNA expression (GSK3B [1]; FOXO4KD cells, 75 ppb and 150 ppb, 24 hours) | GSK3B mRNA levels (GSK3B [1]; 75 ppb and 150 ppb, 24 hours) | GSK3B mRNA levels (GSK3B [1]; 150 ppb, 6 hours) | GSK3B mRNA expression (GSK3B [1]; control KD cells, 75 ppb and 150 ppb, 24 hours) | total GSK3B protein levels (GSK3B [2]) | PSEN1 mRNA expression (PSEN1; 24 hours) |
| --- | --- | --- | --- | --- | --- | --- | --- | --- | --- | --- | --- | --- | --- |
| C[Se]C[C@H]1O[C@@H](n2cnc3c(N)ncnc32)C(O)C1O (stereo in doubt) [Compound C, 5′-deoxy-5′-methylselenoadenosine] | trend towards decreased; also recorded: trend towards reduced | significant decrease; also recorded: inhibited | Significant dose-dependent decreases | significantly reduced | increase; also recorded: elevated | visibly decreased; also recorded: statistically significant decrease | significant reduction | not in FOXO4KD cells | significantly downregulated | significantly decreased | attenuated | visibly decreased; also recorded: statistically significant decrease | – |
| C[Se]C[C@H](NC(=O)CC[C@H](N)C(=O)O)C(=O)O [Compound E, γ-L-glutamyl-Se-methyl-L-selenocysteine] | did not have any effect | did not have any effect | – | – | increase | not observed; also recorded: not Compound E | trend towards reduced | – | – | did not significantly inhibit | – | not observed; also recorded: no significant difference | stimulated |
